Data: patent publication EP4603105A1, “PHARMACEUTICAL COMPOSITION CONTAINING CYCLIC COMPOUND HAVING SELECTIVE KRAS INHIBITORY EFFECT AGAINST HRAS AND NRAS” (CHUGAI SEIYAKU KABUSHIKI KAISHA, priority 2022, dated 2024)
Read-outs that look alike come from different tables or passages of the source. *1 amine or outer side, *2 acyl side, *3 side chain or, on linkers, in order; H or OH if unused. Where a SMILES comes first, the peptide text is derived from it. Bridges are numbered along the chain shown (N, C = ends). [ ]: non-standard residue; d: D form. The star is where a group is joined. hPhe(3,5-F2-4-CF3) = N[C@@H](CCc1cc(F)c(C(F)(F)F)c(F)c1)C(=O)O; hPhe(3-Cl-4-CF3) = N[C@@H](CCc1ccc(C(F)(F)F)c(Cl)c1)C(=O)O; NPrPhe(4-CF3) = CCCN[C@@H](Cc1ccc(C(F)(F)F)cc1)C(=O)O; X36 = CN([C@@H](CCCC=[*:3])C(=O)[*:2])[*:1]; dαMeAlg = C[C@](CC=[*:3])(N[*:1])C(=O)[*:2]; Abu(4,4,4-F3) = N[C@@H](CC(F)(F)F)C(=O)O; NMeGly(cPent) = CN[C@H](C(=O)O)C1CCCC1; Hyp = O=C(O)[C@@H]1C[C@@H](O)CN1; NMeD = CN[C@@H](CC(=O)O)C(=O)O; NMeL = CN[C@@H](CC(C)C)C(=O)O; αMeS = C[C@](N)(CO)C(=O)O; Morpholide = C1CN(*)CCO1; Ac5c = NC1(C(=O)O)CCCC1; Aze = O=C(O)[C@@H]1CCN1; NEtG = CCNCC(=O)O; Sar = CNCC(=O)O

Assays:
[1] = molecular target: GDP-bound NRAS wild-type protein (Homo sapiens, UniProt P01111); assay: Binding to NRAS by surface plasmon resonance (SPR), KD and KD ratio to KRAS
In short: (§1)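 Captured GDP-RAS (~100–300 RU) was exposed to increasing compound concentrations, 75 s per step, in running buffer with 10 µM GDP, 10 mM MgCl2 and 4% DMSO at pH 7.4.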

HRAS wild-type protein = HRAS wild-type protein (Homo sapiens, UniProt P01112); assay: Binding to HRAS by surface plasmon resonance (SPR), KD and KD ratio to KRAS
In short: as §1

[2] = tested on: human lung cancer strain NCI-H441; format: cell-based
In short: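 Step one: dispense the test compound in serial DMSO dilutions. Step three: add the reagent and measure […].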

[3] = ratio of KD for GDP-bound NRAS wild-type protein to KD for KRAS
[4] = ratio of KD for HRAS wild-type protein to KD for KRAS
[5] = ratio of KD value for GDP-bound NRAS wild-type protein to KD value for KRAS (SPR)
[6] = ratio of KD value for HRAS wild-type protein to KD value for KRAS (SPR)

HRAS wild-type protein, sequence (P01112 whole entry): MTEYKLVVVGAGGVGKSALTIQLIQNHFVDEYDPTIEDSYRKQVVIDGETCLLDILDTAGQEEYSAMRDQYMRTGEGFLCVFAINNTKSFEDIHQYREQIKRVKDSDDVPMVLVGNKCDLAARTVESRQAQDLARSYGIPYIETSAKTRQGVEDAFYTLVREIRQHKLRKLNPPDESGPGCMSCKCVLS
GDP-bound NRAS wild-type protein, sequence (P01111 whole entry): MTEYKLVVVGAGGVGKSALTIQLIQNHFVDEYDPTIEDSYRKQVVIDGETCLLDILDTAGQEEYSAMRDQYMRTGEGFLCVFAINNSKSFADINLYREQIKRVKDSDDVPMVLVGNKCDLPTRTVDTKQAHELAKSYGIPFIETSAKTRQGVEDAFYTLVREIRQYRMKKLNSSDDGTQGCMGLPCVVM

Compound	IC50 [2] [nM]	NRAS /KRAS [1, 3]	HRAS /KRAS (HRAS wild-type protein; [4])	NRAS /KRAS [1, 5]	HRAS /KRAS (HRAS wild-type protein; [6])	IC50 ([2]; NCI-H441 cells, 4 days, CellTiter-Glo, read-out: NCl-H441 IC50) [nM]
CCCN1C(=O)CN(C)C(=O)CN(C)C(=O)[C@H]([C@@H](C)CC)NC(=O)[C@@H]2CCCC=CC[C@@](C)(NC(=O)[C@@H]3C[C@@H](OCC)CN3C(=O)[C@H](CCc3cc(F)c(C(F)(F)F)c(F)c3)NC(=O)CN(C)C(=O)[C@@H]1Cc1ccc(C(F)(F)F)cc1)C(=O)N(C)[C@@H](C1CCCC1)C(=O)N(C)[C@H](C(=O)N1CCOCC1)CC(=O)N2C [PP0901] ([X36]I[Sar][Sar][NPrPhe(4-CF3)][Sar][hPhe(3,5-F2-4-CF3)][Hyp](Et)[dαMeAlg][NMeGly(cPent)][NMeD]-Morpholide; staple 1-9; lactam N-11)	332	B (a compound having 3 or more and less than 10 is denoted as B)	B (a compound having 3 or more and less than 10 is denoted as B)			
C#CC[C@H]1C(=O)N[C@@H]([C@@H](C)CC)C(=O)N(C)CC(=O)N(C)[C@H]2C/C=C\CCN(C2=O)[C@@H](Cc2ccc(C(F)(F)F)cc2)C(=O)N(C)CC(=O)N[C@@H](CCc2ccc(C(F)(F)F)c(OC)c2)C(=O)N2CC[C@H]2C(=O)NC2(CCC2)C(=O)N(C)[C@@H](C2CCCC2)C(=O)N(C)[C@H](C(=O)N(C)C)CC(=O)N1C [PP2911]	64.8	A (a compound having 10 or more and less than 20 is denoted as A)	B (a compound having 3 or more and less than 10 is denoted as B)			
CCCN1C(=O)[C@@H]2CCN2C(=O)CN(C)C(=O)[C@H]([C@@H](C)CC)NC(=O)[C@H](CC(C)C)N(C)C(=O)C[C@@H](C(=O)N2CCOCC2)N(C)C(=O)[C@H](C2CCCC2)N(C)C(=O)[C@](C)(COC)NC(=O)[C@@H]2CCCN2C(=O)[C@H](CCc2cc(F)c(C(F)(F)F)c(F)c2)NC(=O)CN(C)C(=O)[C@@H]1Cc1ccc(C(F)(F)F)cc1 [PP0798] ([NMeL]I[Sar][Aze][NPrPhe(4-CF3)][Sar][hPhe(3,5-F2-4-CF3)]P[αMeS](Me)[NMeGly(cPent)][NMeD]-Morpholide; lactam N-11)	61.5	C (A compound having a KD ratio of 0.1 or more and less than 3 is denoted as C)	B (a compound having 3 or more and less than 10 is denoted as B)			
CCC[C@H]1C(=O)N[C@@H]([C@@H](C)CC)C(=O)N(C)CC(=O)N(C)[C@H]2C/C=C\CCN(C2=O)[C@@H](Cc2ccc(C(F)(F)F)cc2)C(=O)N(C)CC(=O)N[C@@H](CCc2cc(Cl)c(C(F)F)c(Cl)c2)C(=O)N2C[C@H](OCC)C[C@H]2C(=O)NC2(CC(C)(C)C2)C(=O)N(C)[C@@H](C2CCCC2)C(=O)N(C)[C@H](C(=O)N(C)C)CC(=O)N1C [PP2865]		A (a compound having 10 or more and less than 20 is denoted as A)	A (a compound having 10 or more and less than 20 is denoted as A)			37.7

The next lines start with results.

IC50 [2] [nM]	Compound	NRAS /KRAS [1, 3]	HRAS /KRAS (HRAS wild-type protein; [4])	NRAS /KRAS [1, 5]	HRAS /KRAS (HRAS wild-type protein; [6])	IC50 ([2]; NCI-H441 cells, 4 days, CellTiter-Glo, read-out: NCl-H441 IC50) [nM]
31	CCCN1C(=O)CN(C)C(=O)CN(CC)C(=O)[C@H](CC(F)(F)F)NC(=O)[C@H](CC(C)C)N(C)C(=O)C[C@@H](C(=O)N2CCOCC2)N(C)C(=O)[C@H](C2CCCC2)N(C)C(=O)C2(CCCC2)NC(=O)[C@@H]2CCCN2C(=O)[C@H](CCc2ccc(C(F)(F)F)c(Cl)c2)NC(=O)CN(C)C(=O)[C@@H]1Cc1ccc(C(F)(F)F)cc1 [PP0291] ([NMeL][Abu(4,4,4-F3)][NEtG][Sar][NPrPhe(4-CF3)][Sar][hPhe(3-Cl-4-CF3)]P[Ac5c][NMeGly(cPent)][NMeD]-Morpholide; lactam N-11)	B (a compound having 3 or more and less than 10 is denoted as B)	B (a compound having 3 or more and less than 10 is denoted as B)			
1.9	CCO[C@@H]1C[C@H]2C(=O)NC3(CC(C)(C)C3)C(=O)N(C)[C@@H](C3CCCC3)C(=O)N(C)[C@H](C(=O)N(C)C)CC(=O)N(C)[C@@H](CC)C(=O)N[C@@H]([C@@H](C)CC)C(=O)N(C)CC(=O)N(C)[C@H]3C/C=C\CCN(C3=O)[C@@H](Cc3ccc(C(F)(F)F)cc3)C(=O)N(C)CC(=O)N[C@@H](CCc3ccc(C(F)(F)F)c(Cl)c3)C(=O)N2C1 [PP1746]			A (a compound having 10 or more and less than 20 is denoted as A)	A (a compound having 10 or more and less than 20 is denoted as A)	
4.9	CCO[C@@H]1C[C@H]2C(=O)NC3(CC(C)(C)C3)C(=O)N(C)[C@@H](C3CCCC3)C(=O)N(C)[C@H](C(=O)N(C)CC)CC(=O)N(C)[C@H]3CCC/C=C/c4ccc(cc4)C[C@@H](C(=O)N(C)CC(=O)N[C@@H](CCc4cc(F)c(C(F)(F)F)c(F)c4)C(=O)N2C1)N1CC/C=C\C[C@@H](C1=O)N(C)C(=O)CN(C)C(=O)[C@H]([C@@H](C)CC)NC3=O [PP1835]			A (a compound having 10 or more and less than 20 is denoted as A)	B (a compound having 3 or more and less than 10 is denoted as B)	
12.2	C=CC[C@H]1C(=O)N[C@@H]([C@@H](C)CC)C(=O)N(C)CC(=O)N(C)[C@H]2C/C=C\CCN(C2=O)[C@@H](Cc2ccc(C(F)(F)F)cc2)C(=O)N(C)CC(=O)N[C@@H](CCc2cc(F)c(C(F)(F)F)c(F)c2)C(=O)N2C[C@H](OCC)C[C@H]2C(=O)NC2(CCC2)C(=O)N(C)[C@@H](C2CCCC2)C(=O)N(C)[C@H](C(=O)N(C)C)CC(=O)N1C [PP1114]	A (a compound having 10 or more and less than 20 is denoted as A)	A (a compound having 10 or more and less than 20 is denoted as A)			
